# Reference: paper PMC6515668, “Liposomes for effective drug delivery to the ocular posterior chamber” (Journal of Nanobiotechnology, 2019)
# Structures can show the parent of a compound that is named as a salt.
# What was measured:
# ARPE-19 = assay: In vitro anti-ROS efficacy (H2O2-exposed cells, DCFH-DA); format: cell-based, human; settings: ARPE-19 exposed to 200 μM H2O2 for 24 h, versus model group
# Method: Human retinal pigment epithelial cells (ARPE-19) were maintained in Dulbecco’s modified Eagle’s medium/Ham’s F12 (Gibco) supplemented with 10% fetal bovine serum (Gibco), 100 IU/mL penicillin (Gibco), and 100 μg/mL streptomycin (Gibco) at 37 °C in an atmosphere of 5% CO2. After incubation, cells were exposed to 200 μM H2O2 for 24 h, and fluorescent probes (Beyotime Biotechnology, China) were used to measure intracellular ROS levels (DCFH-DA, 10 mM) according to the manufacturer’s instructions. Before application, CBLs and P-CBLs of a certain volume were diluted with complete culture medium. The final concentration of BBH was 0.0040 μM and 0.0020 μM for CHR in CBLs groups, while 0.0044 μM of BBH, 0.0018 μM for CHR for P-CBLs, respectively. The final drug concentration of CBs was the same as CBLs group. Treated cells were loaded with fluorescent probes in a serum-free medium for 20 min at 37 °C. Then, photographs were taken using a long-term real-time dynamic live cell imaging analyzer.
# [1] = Microdialysis probe recovery and stability (dialysis and retrodialysis); settings: retrodialysis, 7 h
# Method: Normal saline containing 30% ethanol was chosen as the perfusate for two drugs with opposing polarity, and the flow rate was 1.5 μL/min according to our previous study. Then, an in vitro RR% evaluation was performed via dialysis and retrodialysis. The in vivo stability study was performed using a retrodialysis method, which provided the evidence for the microdialysis method that was used for the in vivo pharmacokinetics study.
structure (smiles),measurement,setting,value
"COc1ccc2cc3[n+](cc2c1OC)CCc1cc2c(cc1-3)OCO2 [BBH, berberine hydrochloride]",intracellular ROS levels (relative fluorescence ratio),ARPE-19,could reduce intracellular ROS levels effectively
same,stability in in vivo analysis,[1],good stability for 7 h
"Cc1cc(O)c2c(c1)C(=O)c1cccc(O)c1C2=O [CHR, chrysophanol]",intracellular ROS levels (relative fluorescence ratio),ARPE-19,could reduce intracellular ROS levels effectively
same,stability in in vivo analysis,[1],good stability for 7 h
